Experimental findings from US20250230165A1, “HETEROCYCLIC COMPOUNDS FOR USE IN THE TREATMENT OF CANCER” (ARTIOS PHARMA LIMITED, priority 2021, published 2025) are described below.

The target in the test is T1, Human Polθ polymerase domain (aa1820-2590) (Homo sapiens, UniProt O75417).
T1 construct: Human Polθ polymerase domain (aa1820-2590) was expressed in E. coli; made in house; host or cells: E. coli
T1 sequence (O75417 1820-2590): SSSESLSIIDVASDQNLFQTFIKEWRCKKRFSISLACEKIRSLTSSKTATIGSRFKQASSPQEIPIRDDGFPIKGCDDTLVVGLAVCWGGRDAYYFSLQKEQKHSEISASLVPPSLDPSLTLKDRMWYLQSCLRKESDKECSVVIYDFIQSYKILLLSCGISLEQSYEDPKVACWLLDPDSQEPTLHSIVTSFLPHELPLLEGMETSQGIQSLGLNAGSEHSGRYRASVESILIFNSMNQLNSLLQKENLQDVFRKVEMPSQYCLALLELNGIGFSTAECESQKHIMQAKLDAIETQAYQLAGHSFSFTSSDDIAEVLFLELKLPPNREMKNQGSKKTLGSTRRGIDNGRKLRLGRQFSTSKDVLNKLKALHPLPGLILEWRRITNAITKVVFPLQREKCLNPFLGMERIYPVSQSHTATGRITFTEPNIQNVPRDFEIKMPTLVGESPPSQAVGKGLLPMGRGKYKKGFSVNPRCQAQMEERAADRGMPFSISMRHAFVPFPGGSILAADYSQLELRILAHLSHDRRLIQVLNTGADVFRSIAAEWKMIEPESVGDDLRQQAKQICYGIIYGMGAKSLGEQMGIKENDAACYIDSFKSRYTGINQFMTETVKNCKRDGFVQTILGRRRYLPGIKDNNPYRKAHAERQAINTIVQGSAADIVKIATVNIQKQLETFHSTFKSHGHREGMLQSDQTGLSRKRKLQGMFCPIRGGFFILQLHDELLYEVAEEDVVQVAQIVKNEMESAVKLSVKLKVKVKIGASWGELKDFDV
The test is described as follows: Polθ Polymerase Domain Kinact/KI Assay (PicoGreen). Particulars: 0.8 nM Polθ, 100 nM DNA substrate, kobs vs [I] fit for 2-step covalent inhibitor. Format: biochemical. The method, boiled down:
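PicoGreen fluorescence read-out of primer extension; progress curves per inhibitor concentration fitted for kobs, then kobs vs [I] fitted to a two-step covalent model to give Kinact and KI. Conditions: 0.8 nM enzyme, 100 nM DNA substrate, […].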
As to `C=C(CN(C)C)C(=O)N1CC(C2CCC(CN3C[C@H]4CC(=O)N(c5cc(C(F)(F)F)cc(C)n5)[C@@H]4C(=O)N(C)c4cccc(Cl)c43)CC2)C1` (stereo partly drawn) [Example 160, (3aR,11aS)-6-chloro-5-((4-(1-(2-((dimethylamino)methyl)acryloyl)azetidin-3-yl)cyclohexyl)methyl)-10-methyl-1-(6-methyl-4-(trifluoromethyl)pyridin-2-yl)-1,3a,4,5,10,11a-hexahydro-2H-benzo[b]pyrrolo[2,3-f][1,4]diazocine-2,11(3H)-dione], the Kinact/Kl amounted to 2.3e+06 M⁻¹ s⁻¹.

`C=C(CN(C)C)C(=O)N1CC(CCCCN2C[C@H]3CC(=O)N(c4cc(C(F)(F)F)cc(C)n4)[C@@H]3C(=O)N(C)c3cccc(Cl)c32)C1` [Example 161, (3aR, 11aS)-6-chloro-5-(4-(1-(2-((dimethylamino)methyl)acryloyl)azetidin-3-yl)butyl)-10-methyl-1-(6-methyl-4-(trifluoromethyl)pyridin-2-yl)-1,3a,4,5,10,11a-hexahydro-2H-benzo[b]pyrrolo[2,3-f][1,4]diazocine-2,11(3H)-dione] displayed a Kinact/Kl of 5.08e+06 M⁻¹ s⁻¹.

`C=C(CN(C)C)C(=O)N1CC(COCCN2C[C@H]3CC(=O)N(c4cc(C(F)(F)F)cc(C)n4)[C@@H]3C(=O)N(C)c3cccc(Cl)c32)C1` [Example 162, (3aR,11aS)-6-chloro-5-(2-((1-(2-((dimethylamino)methyl)acryloyl)azetidin-3-yl)methoxy)ethyl)-10-methyl-1-(6-methyl-4-(trifluoromethyl)pyridin-2-yl)-1,3a,4,5,10,11a-hexahydro-2H-benzo[b]pyrrolo[2,3-f][1,4]diazocine-2,11(3H)-dione] showed a Kinact/Kl of 2.95e+06 M⁻¹ s⁻¹.

Turning to `C=C(CN(C)C)C(=O)N1Cc2ccc(CN3C[C@H]4CC(=O)N(c5cc(C(F)(F)F)cc(C)n5)[C@@H]4C(=O)N(C)c4cccc(Cl)c43)cc2C1` [Example 163, (3aR,11aS)-6-chloro-5-((2-(2-((dimethylamino)methyl)acryloyl)isoindolin-5-yl)methyl)-10-methyl-1-(6-methyl-4-(trifluoromethyl)pyridin-2-yl)-1,3a,4,5,10,11a-hexahydro-2H-benzo[b]pyrrolo[2,3-f][1,4]diazocine-2,11(3H)-dione], the Kinact/Kl is 1.82e+06 M⁻¹ s⁻¹.

`C=C(CN(C)C)C(=O)NC12CC(CN3C[C@H]4CC(=O)N(c5cc(C(F)(F)F)cc(C)n5)[C@@H]4C(=O)N(C)c4cccc(Cl)c43)(C1)C2` [Example 164, N-(3-(((3aR,11aS)-6-chloro-10-methyl-1-(6-methyl-4-(trifluoromethyl)pyridin-2-yl)-2,11-dioxo-1,2,3,3a,4, 10,11,11a-octahydro-5H-benzo[b]pyrrolo[2,3-f][1,4]diazocin-5-yl)methyl)bicyclo[1.1.1]pentan-1-yl)-2-((dimethylamino)methyl) acrylamide] had a Kinact/Kl of 2.38e+06 M⁻¹ s⁻¹.

The compound `C=C(C)C(=O)N1CC(OCCCN2C[C@H]3CC(=O)N(c4cc(C(F)(F)F)cc(C)n4)[C@@H]3C(=O)N(C)c3cccc(Cl)c32)C1` [Example 165, (3aR,11aS)-6-chloro-5-(3-((1-methacryloylazetidin-3-yl)oxy)propyl)-10-methyl-1-(6-methyl-4-(trifluoromethyl)pyridin-2-yl)-1,3a,4,5,10,11a-hexahydro-2H-benzo[b]pyrrolo[2,3-f][1,4]diazocine-2,11(3H)-dione] yielded a Kinact/Kl of 1.18e+06 M⁻¹ s⁻¹.

Compound `C=C(CN(CC)CC)C(=O)N1CC(OCCCN2C[C@H]3CC(=O)N(c4cc(C(F)(F)F)cc(C)n4)[C@@H]3C(=O)N(C)c3cccc(Cl)c32)C1` [Example 166, (3aR, 11aS)-6-chloro-5-(3-((1-(2-((diethylamino)methyl)acryloyl)azetidin-3-yl)oxy)propyl)-10-methyl-1-(6-methyl-4-(trifluoromethyl)pyridin-2-yl)-1,3a,4,5,10,11a-hexahydro-2H-benzo[b]pyrrolo[2,3-f][1,4]diazocine-2,11(3H)-dione] had a Kinact/Kl of 3.41e+06 M⁻¹ s⁻¹.

`C=C(CN1CCN(C)CC1)C(=O)N1CC(CCCCN2C[C@H]3CC(=O)N(c4cc(C(F)(F)F)cc(C)n4)[C@@H]3C(=O)N(C)c3cccc(Cl)c32)C1` [Example 167, (3aR,11aS)-6-chloro-10-methyl-1-(6-methyl-4-(trifluoromethyl)pyridin-2-yl)-5-(4-(1-(2-((4-methylpiperazin-1-yl)methyl)acryloyl)azetidin-3-yl)butyl)-1,3a,4,5,10,11a-hexahydro-2H-benzo[b]pyrrolo[2,3-f][1,4]diazocine-2,11(3H)-dione] returned a Kinact/Kl of 4.66e+06 M⁻¹ s⁻¹.

The compound `C=C(CO)C(=O)N1CCC(CCCN2C[C@H]3CC(=O)N(c4cc(C(F)(F)F)cc(C)n4)[C@@H]3C(=O)N(C)c3cccc(Cl)c32)CC1` [Example 168, (3aR,11aS)-6-chloro-5-(3-(1-(2-(hydroxymethyl)acryloyl)piperidin-4-yl)propyl)-10-methyl-1-(6-methyl-4-(trifluoromethyl)pyridin-2-yl)-1,3a,4,5,10,11a-hexahydro-2H-benzo[b]pyrrolo[2,3-f][1,4]diazocine-2,11(3H)-dione] had a Kinact/Kl of 1.97e+06 M⁻¹ s⁻¹.

Regarding `Cc1cc(C(F)(F)F)cc(N2C(=O)C[C@@H]3CN(CCCOC4CN(C(=O)/C=C/CN(C)C)C4)c4c(C)cccc4N(C)C(=O)[C@H]32)n1` [Example 169, (3aR,11aS)-5-(3-((1-((E)-4-(dimethylamino)but-2-enoyl)azetidin-3-yl)oxy)propyl)-6,10-dimethyl-1-(6-methyl-4-(trifluoromethyl)pyridin-2-yl)-1,3a,4,5,10,11a-hexahydro-2H-benzo[b]pyrrolo[2,3-f][1,4]diazocine-2,11(3H)-dione], the Kinact/Kl was 2.69e+06 M⁻¹ s⁻¹.

Take `C=CC(=O)N1CCn2nc(CN3C[C@H]4CC(=O)N(c5cc(C(F)(F)F)cc(C)n5)[C@@H]4C(=O)N(C)c4cccc(C)c43)cc2C1` [Example 173, (3aR,11aS)-5-((5-acryloyl-4,5,6,7-tetrahydropyrazolo [1,5-a]pyrazin-2-yl)methyl)-6,10-dimethyl-1-(6-methyl-4-(trifluoro-methyl)pyridin-2-yl)-1,3a,4,5,10, 11a-hexahydro-2H-benzo[b]pyrrolo [2,3-f][1,4]diazo-cine-2,11(3H)-dione]: the Kinact/Kl is 2.92e+06 M⁻¹ s⁻¹.

For the compound `C=CC(=O)NC12CC(CN3C[C@H]4CC(=O)N(c5cc(C(F)(F)F)cc(C)n5)[C@@H]4C(=O)N(C)c4cccc(C)c43)(C1)C2` [Example 174, N-(3-(((3aR,11aS)-6,10-dimethyl-1-(6-methyl-4-(tri-fluoromethyl)pyr-idin-2-yl)-2,11-dioxo-1,2,3,3a,4, 10,11,11a-octa-hydro-5H-benzo [b]pyrrolo[2,3-f] [1,4]diazocin-5-yl)methyl)bicyclo [1.1.1]pentan-1-yl)acrylamide], the Kinact/Kl is 1.08e+06 M⁻¹ s⁻¹.

Turning to `C=CC(=O)NCC12CC(CN3C[C@H]4CC(=O)N(c5cc(C(F)(F)F)cc(C)n5)[C@@H]4C(=O)N(C)c4cccc(C)c43)(C1)C2` [Example 175, N-((3-(((3aR,11aS)-6,10-dimethyl-1-(6-methyl-4-(tri-fluoromethyl)pyr-idin-2-yl)-2,11-dioxo-1,2,3,3a,4, 10,11,11a-octa-hydro-5H-benzo [b]pyrrolo[2,3-f] [1,4]diazocin-5-yl)methyl)bicyclo [1.1.1]pentan-1-yl)-methyl)acrylamide], the Kinact/Kl came out at 370000 M⁻¹ s⁻¹.

For the compound `Cc1cc(C(F)(F)F)cc(N2C(=O)C[C@@H]3CN(Cc4ccc5c(c4)CN(C(=O)/C=C/CN(C)C)C5)c4c(C)cccc4N(C)C(=O)[C@H]32)n1` [Example 176, (3aR,11aS)-5-((2-((E)-4-(dimethyl-amino)but-2-enoyl)isoindolin-5-yl)methyl)-6,10-dimethyl-1-(6-methyl-4-(tri-fluoromethyl)pyr-idin-2-yl)-1,3a,4,5,10,11a-hexa-hydro-2H-benzo [b]pyrrolo[2,3-f] [1,4]diazocine-2,11(3H)-dione], the Kinact/Kl turned out to be 1.37e+06 M⁻¹ s⁻¹.

`Cc1cc(C(F)(F)F)cc(N2C(=O)C[C@@H]3CN(Cc4ccc(CNC(=O)/C=C/CN(C)C)cc4)c4c(C)cccc4N(C)C(=O)[C@H]32)n1` [Example 177, (E)-N-(4-(((3aR, 11aS)-6,10-dimeth-yl-1-(6-methyl-4-(trifluoromethyl)-pyridin-2-yl)-2,11-dioxo-1,2,3,3a,4, 10,11,11a-octa-hydro-5H-benzo[b]pyrrolo[2,3-f][1,4]diazocin-5-yl)-methyl)benzyl)-4-(dimethylamino)-but-2-enamide] gave a Kinact/Kl of 260000 M⁻¹ s⁻¹.
